The test system of test [1] is Salmonella. Particulars: ATRA during parenteral immunization, reference 12; cited from earlier work.
Test [2] has as its system mucosal memory responses. The test is described as follows: Effect of ATRA on immune responses in skin-draining lymph nodes in vivo.

The text below walks through data of patent US20210338709A1, “USES OF MODIFIED RNA ENCODING RETINALDEHYDE DEHYDROGENASE” (priority 2018, published 2021).

For the compound `CC1=C(/C=C/C(C)=C/C=C/C(C)=C/C(=O)O)C(C)(C)CCC1` [ATRA, all-trans retinoic acid], the “protection against Salmonella infections” value in test [1] is listed as “convey protection against Salmonella infections”. Moreover, the “mucosal memory responses at mucosal surfaces” value in test [2] was “not only enhanced in the small intestine, but also at other mucosal surfaces”.
